Measurements from PubChem BioAssay (NCI).
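In this assay, cells in 96-well plates receive the compound at five concentrations for 48 hours. Endpoints are linearly interpolated between the surrounding concentrations. GI50 = concentration required for 50% inhibition of growth. Definition used: TGI = concentration required for complete inhibition of growth.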

Experiments:
Assay in all cases: growth of human tumour cells (NCI), 48 h
[1] = test system: KM12 colon
[2] = test system: SNB-19 CNS
[3] = test system: HOP-62 NSCLC
[4] = test system: UACC-257 melanoma
[5] = test system: RXF 393 renal
[6] = test system: OVCAR-5 ovarian
[7] = test system: SF-295 CNS
[8] = test system: HT29 colon
[9] = test system: HOP-92 NSCLC

SMILES	TGI [1] [µM]	TGI [2] [µM]	TGI [3] [µM]	TGI [4] [µM]	TGI [5] [µM]	TGI [6] [µM]	TGI [7] [µM]	TGI [8] [µM]	GI50 [3] [µM]	GI50 [4] [µM]	GI50 [9] [µM]	TGI [9] [µM]	GI50 [5] [µM]	GI50 [6] [µM]	GI50 [7] [µM]
COc1ccc(C(=O)/C=C/c2ccc(OCCCCCCCCCCOc3ccc(/C=C/C(=O)c4ccc(OC)c(OC)c4)cc3)cc2)c(OC)c1	> 100	> 100	> 100	> 100	> 100	> 100	> 100	> 100	–	–	–	–	–	–	–
CCc1ccc(OCc2ccccc2C(=O)Nc2ccc3nc(C)cc(N)c3c2)cc1	–	–	3.31	3.37	2.75	3.14	3.13	–	1.77	1.83	1.16	2.55	1.32	1.62	1.65
CN(C)CCN1C(=O)N(CCN(C)C)c2c3cc(O)ccc3nc3c([N+](=O)[O-])ccc1c23	23.3	24.2	–	29.2	–	–	–	20.1	–	–	–	37.3	–	–	–
Clc1sc(Cl)c2c1[C@H](Br)C[C@@H]2Cl	> 100	> 100	> 100	78.2	87.6	> 100	> 100	> 100	–	–	–	–	–	–	–
CC1CCc2sc3[nH]c(=S)n(C)c(=O)c3c2C1 (centres undefined)	> 100	> 100	> 100	> 100	> 100	> 100	> 100	> 100	–	–	–	44.5	–	–	–
O=C(O)Cn1c[n+](NC(=O)Cc2ccccc2)cn1	> 10	> 10	> 10	> 10	–	> 10	> 10	> 10	–	–	–	> 10	–	–	–
CC(C)NC(=O)OCc1c(COC(=O)NC(C)C)n(C)c2c1ccc1cc(Cl)c(Cl)cc12	–	26.6	28	30.6	25	29.4	30.8	29.3	–	–	–	24.3	–	–	–
CC(=O)Oc1ccc2c(c1)O/C(=C\c1ccc(O)cc1)C2=O	> 100	> 100	> 100	> 100	> 100	–	> 100	–	–	–	–	–	–	–	–
O=C1c2c(Br)sc(Br)c2[C@H]2OC(=S)N[C@@H]12	38.8	30	30.7	17.1	8.8	32.4	30.1	4.05	–	–	–	27.3	–	–	–
Fc1ccc(OCc2ccc3nc(-c4ccccc4)c(Cl)nc3c2)cc1	> 100	–	31.3	> 100	–	> 100	50.3	> 100	–	–	–	50.1	–	–	–
CCOP(=O)(CC1OC(CO)C(O)C1O)OCC (centres undefined)	> 100	> 100	> 100	> 100	> 100	> 100	> 100	> 61.8	–	–	–	> 100	–	–	–
